Assay results published in paper PMC8115619, “Generation of a chemical genetic model for JAK3” (Scientific Reports, 2021).
“Also recorded” adds a separate entry of the source.

Key:
GCK = GCK (Homo sapiens, UniProt Q12851); assay: Selectivity screen GCK; format: biochemical; settings: 1 µM inhibitor, mean
Protocol: (§1) For the in vitro kinase assay, JAK3 (5–20 mU diluted in 50 mM Tris pH 7.5, 0.1 mM EGTA, 0.05% β-mercaptoethanol, 1 mg/ml BSA) was assayed against PDKtide ([…]) in a final volume of 25.5 µl containing 50 mM Tris pH 7.5, 0.1 mM EGTA, 0.05% β-mercaptoethanol, 100 µM substrate peptide, 10 mM magnesium acetate and 0.02 mM [33P-γ-ATP] (50–1000 cpm/pmole) and incubated for 30 min at room temperature. Assays were started by the addition of the ATP and stopped by addition of 5 µl of 0.5 M (3%) orthophosphoric acid and then harvested onto P81 Unifilter plates with a wash buffer of 50 mM orthophosphoric acid. To determine the Km for ATP, assays were run using 1, 5, 10, 20, 50, 100, 200, 400, 500 μM ATP and Km derived by non-linear regression fitting to the Michaelis–Menten equation v = Vmax[S]/(Km + [S]). IC50 values for inhibitors via non-linear regression using a parameter model: Y = Bottom + (Top–Bottom)/(1 + (IC50/X)^HillSlope). Non-linear regression was carried out in Prism (version 8). In vitro selectivity screen was carried out as described previously.

MAP4K5 = MAP4K5 (Homo sapiens, UniProt Q9Y4K4); assay: Selectivity screen MAP4K5; format: biochemical; settings: 1 µM inhibitor, mean
Protocol: as §1

SRPK1 = SRPK1 (Homo sapiens, UniProt Q96SB4); assay: Selectivity screen SRPK1; format: biochemical; settings: 1 µM inhibitor, mean
Sequence of SRPK1 (Q96SB4 whole entry): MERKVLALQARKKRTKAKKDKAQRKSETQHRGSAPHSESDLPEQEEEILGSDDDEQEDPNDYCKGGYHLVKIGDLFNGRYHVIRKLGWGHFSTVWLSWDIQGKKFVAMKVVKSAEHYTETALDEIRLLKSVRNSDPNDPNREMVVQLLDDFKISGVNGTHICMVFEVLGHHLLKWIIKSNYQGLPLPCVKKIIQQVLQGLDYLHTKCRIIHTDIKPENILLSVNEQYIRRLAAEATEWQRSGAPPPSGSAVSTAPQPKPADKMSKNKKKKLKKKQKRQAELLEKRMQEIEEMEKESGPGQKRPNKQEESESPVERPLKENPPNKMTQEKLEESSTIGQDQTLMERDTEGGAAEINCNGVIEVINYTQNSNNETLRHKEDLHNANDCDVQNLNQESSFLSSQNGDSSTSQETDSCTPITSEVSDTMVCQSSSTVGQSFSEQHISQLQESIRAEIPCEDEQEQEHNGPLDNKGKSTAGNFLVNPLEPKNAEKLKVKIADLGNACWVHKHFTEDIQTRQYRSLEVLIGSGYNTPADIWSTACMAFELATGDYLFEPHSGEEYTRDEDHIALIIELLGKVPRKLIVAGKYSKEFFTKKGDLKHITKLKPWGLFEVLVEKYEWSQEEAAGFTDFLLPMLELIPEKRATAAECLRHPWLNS
Protocol: as §1

PIM2 = PIM2 (Homo sapiens, UniProt Q9P1W9); assay: Selectivity screen PIM2; format: biochemical; settings: 1 µM inhibitor, mean
Protocol: as §1

MPSK1 = MPSK1 (Homo sapiens, UniProt O75716); assay: Selectivity screen MPSK1; format: biochemical; settings: 1 µM inhibitor, mean
Sequence of MPSK1 (O75716 whole entry): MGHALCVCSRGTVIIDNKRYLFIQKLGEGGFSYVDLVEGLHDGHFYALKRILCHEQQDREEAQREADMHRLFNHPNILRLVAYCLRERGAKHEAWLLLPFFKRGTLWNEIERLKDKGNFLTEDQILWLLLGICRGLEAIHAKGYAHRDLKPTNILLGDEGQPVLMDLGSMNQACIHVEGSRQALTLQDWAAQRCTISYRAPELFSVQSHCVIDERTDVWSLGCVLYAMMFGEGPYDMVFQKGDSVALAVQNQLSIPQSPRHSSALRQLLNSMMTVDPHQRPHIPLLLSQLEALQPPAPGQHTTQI
Protocol: as §1

p38d MAPK = p38d MAPK (Homo sapiens, UniProt O15264); assay: Selectivity screen p38d MAPK; format: biochemical; settings: 1 µM inhibitor, mean
Protocol: as §1

ULK1 = ULK1 (Homo sapiens, UniProt O75385); assay: Selectivity screen ULK1; format: biochemical; settings: 1 µM inhibitor, mean
Protocol: as §1

NEK2a = NEK2a (Homo sapiens, UniProt P51955); assay: Selectivity screen NEK2a; format: biochemical; settings: 1 µM inhibitor, mean
Sequence of NEK2a (P51955 whole entry): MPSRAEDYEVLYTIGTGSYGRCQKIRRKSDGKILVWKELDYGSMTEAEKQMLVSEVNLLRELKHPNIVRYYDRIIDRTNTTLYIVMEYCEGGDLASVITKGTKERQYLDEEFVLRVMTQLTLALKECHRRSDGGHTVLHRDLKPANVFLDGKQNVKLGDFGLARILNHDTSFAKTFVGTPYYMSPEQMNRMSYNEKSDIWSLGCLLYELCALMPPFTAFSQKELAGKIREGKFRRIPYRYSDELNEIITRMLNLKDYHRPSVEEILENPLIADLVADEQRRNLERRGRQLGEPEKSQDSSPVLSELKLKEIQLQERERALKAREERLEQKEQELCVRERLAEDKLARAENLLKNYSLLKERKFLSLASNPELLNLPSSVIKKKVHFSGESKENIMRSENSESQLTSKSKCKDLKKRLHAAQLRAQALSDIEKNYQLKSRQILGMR
Protocol: as §1

Lck = Lck (Homo sapiens, UniProt P06239); assay: Selectivity screen Lck; format: biochemical; settings: 1 µM inhibitor, mean
Protocol: as §1

BRK = BRK (Homo sapiens, UniProt Q13882); assay: Selectivity screen BRK; format: biochemical; settings: 1 µM inhibitor, mean
Sequence of BRK (Q13882 whole entry): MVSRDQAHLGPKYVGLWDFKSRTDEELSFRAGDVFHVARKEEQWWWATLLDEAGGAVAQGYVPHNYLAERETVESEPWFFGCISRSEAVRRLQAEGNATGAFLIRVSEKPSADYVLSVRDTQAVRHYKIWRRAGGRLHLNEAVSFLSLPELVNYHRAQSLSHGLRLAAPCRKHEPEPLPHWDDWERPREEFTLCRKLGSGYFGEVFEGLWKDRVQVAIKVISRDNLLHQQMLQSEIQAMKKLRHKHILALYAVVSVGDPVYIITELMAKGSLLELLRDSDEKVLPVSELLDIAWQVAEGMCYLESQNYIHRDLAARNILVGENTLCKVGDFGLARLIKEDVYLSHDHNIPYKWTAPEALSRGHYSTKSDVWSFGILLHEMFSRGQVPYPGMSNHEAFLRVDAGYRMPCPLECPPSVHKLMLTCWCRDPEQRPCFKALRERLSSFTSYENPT

VEG-FR = VEG-FR (Homo sapiens, UniProt P17948); assay: Selectivity screen VEG-FR; format: biochemical; settings: 1 µM inhibitor, mean
Sequence of VEG-FR (P17948 784-1338 limits assumed): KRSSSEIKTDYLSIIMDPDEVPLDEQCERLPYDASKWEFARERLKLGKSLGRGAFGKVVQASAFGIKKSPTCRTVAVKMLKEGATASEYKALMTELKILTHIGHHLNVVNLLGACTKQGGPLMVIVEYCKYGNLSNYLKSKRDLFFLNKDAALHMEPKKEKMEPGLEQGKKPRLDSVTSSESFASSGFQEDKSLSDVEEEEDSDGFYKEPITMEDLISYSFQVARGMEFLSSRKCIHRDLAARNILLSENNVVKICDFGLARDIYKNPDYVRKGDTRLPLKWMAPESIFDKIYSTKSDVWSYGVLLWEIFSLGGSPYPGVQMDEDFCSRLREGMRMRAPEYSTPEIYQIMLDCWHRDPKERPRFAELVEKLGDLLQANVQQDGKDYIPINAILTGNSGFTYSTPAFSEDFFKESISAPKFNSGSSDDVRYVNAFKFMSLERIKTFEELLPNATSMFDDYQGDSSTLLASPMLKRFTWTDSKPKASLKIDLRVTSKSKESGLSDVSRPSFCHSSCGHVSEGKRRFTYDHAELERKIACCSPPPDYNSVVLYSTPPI
Protocol: as §1

CDK9-Cyclin T1 = CDK9-Cyclin T1 (Homo sapiens, UniProt P50750); assay: Selectivity screen CDK9-Cyclin T1; format: biochemical; settings: 1 µM inhibitor, mean
Protocol: as §1

MST2 = MST2 (Homo sapiens, UniProt Q13188); assay: Selectivity screen MST2; format: biochemical; settings: 1 µM inhibitor, mean
Protocol: as §1

[1] = test system: IL-4 induced STAT6 phosphorylation in spleenocytes; assay: IL-4 induced STAT6 phosphorylation in spleenocytes; format: cell-based, mouse; settings: wild type mice, inhibitor 1 h, 10 ng/ml IL-4 30 min
Protocol: (A) Single cell suspensions were prepared from the spleens of wild type mice. […] Cells were then stimulated with 10 ng/ml IL-4 for 30 min and the levels of phosphorylated STAT6 determined by immunoblotting. (B) As (A) except cells were stimulated with 10 ng/ml IL-2 and the levels of phosphorylated STAT5 determined. (C) CD8 T cells were expanded from the lymph nodes of wild type and JAK3 Cys905Ser knockin mice. Cells were rested in the absence of IL-2 for 60 min then incubated with the indicated concentrations of PF-06651600 for a further 30 min before stimulation with 10 ng/ml of IL-2 for 30 min. The levels of phosphorylated STAT5 and total ERK1/2 were then determined.
(§2) Cells were lysed directly into SDS sample buffer and aliquots run on 10% polyacrylamide gels using standard methods. Proteins were transferred onto nitrocellulose membranes, and specific proteins were detected by immunoblotting. […] Bands were detected using Clarity ECL reagents from BioRad and imaged on a Licor Odyssey Fc system. Quantification was carried out using Licor Image Studio software. After correction for the ERK1/2 levels to account for loading differences, percentage inhibition was calculated relative to the IL-4 stimulated condition. IC50 values were calculated using the same methods as for the in vitro IC50 values.

PIM3 = PIM3 (Homo sapiens, UniProt Q86V86); assay: Selectivity screen PIM3; format: biochemical; settings: 1 µM inhibitor, mean
Protocol: as §1

p38b MAPK = p38b MAPK (Homo sapiens, UniProt Q15759); assay: Selectivity screen p38b MAPK; format: biochemical; settings: 1 µM inhibitor, mean
Sequence of p38b MAPK (Q15759 whole entry): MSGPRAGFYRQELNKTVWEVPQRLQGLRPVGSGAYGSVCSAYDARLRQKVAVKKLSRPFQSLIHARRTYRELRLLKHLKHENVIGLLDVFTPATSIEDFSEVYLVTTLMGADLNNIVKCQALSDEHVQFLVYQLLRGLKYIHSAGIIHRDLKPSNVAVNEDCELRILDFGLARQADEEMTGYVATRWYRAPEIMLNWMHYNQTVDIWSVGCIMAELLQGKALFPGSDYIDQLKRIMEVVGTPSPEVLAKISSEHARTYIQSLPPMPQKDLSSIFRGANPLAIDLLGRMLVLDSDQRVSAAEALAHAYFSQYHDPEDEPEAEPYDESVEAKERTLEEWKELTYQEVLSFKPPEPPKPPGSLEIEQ
Protocol: as §1

ROCK 2 = ROCK 2 (Homo sapiens, UniProt O75116); assay: Selectivity screen ROCK 2; format: biochemical; settings: 1 µM inhibitor, mean
Sequence of ROCK 2 (O75116 whole entry): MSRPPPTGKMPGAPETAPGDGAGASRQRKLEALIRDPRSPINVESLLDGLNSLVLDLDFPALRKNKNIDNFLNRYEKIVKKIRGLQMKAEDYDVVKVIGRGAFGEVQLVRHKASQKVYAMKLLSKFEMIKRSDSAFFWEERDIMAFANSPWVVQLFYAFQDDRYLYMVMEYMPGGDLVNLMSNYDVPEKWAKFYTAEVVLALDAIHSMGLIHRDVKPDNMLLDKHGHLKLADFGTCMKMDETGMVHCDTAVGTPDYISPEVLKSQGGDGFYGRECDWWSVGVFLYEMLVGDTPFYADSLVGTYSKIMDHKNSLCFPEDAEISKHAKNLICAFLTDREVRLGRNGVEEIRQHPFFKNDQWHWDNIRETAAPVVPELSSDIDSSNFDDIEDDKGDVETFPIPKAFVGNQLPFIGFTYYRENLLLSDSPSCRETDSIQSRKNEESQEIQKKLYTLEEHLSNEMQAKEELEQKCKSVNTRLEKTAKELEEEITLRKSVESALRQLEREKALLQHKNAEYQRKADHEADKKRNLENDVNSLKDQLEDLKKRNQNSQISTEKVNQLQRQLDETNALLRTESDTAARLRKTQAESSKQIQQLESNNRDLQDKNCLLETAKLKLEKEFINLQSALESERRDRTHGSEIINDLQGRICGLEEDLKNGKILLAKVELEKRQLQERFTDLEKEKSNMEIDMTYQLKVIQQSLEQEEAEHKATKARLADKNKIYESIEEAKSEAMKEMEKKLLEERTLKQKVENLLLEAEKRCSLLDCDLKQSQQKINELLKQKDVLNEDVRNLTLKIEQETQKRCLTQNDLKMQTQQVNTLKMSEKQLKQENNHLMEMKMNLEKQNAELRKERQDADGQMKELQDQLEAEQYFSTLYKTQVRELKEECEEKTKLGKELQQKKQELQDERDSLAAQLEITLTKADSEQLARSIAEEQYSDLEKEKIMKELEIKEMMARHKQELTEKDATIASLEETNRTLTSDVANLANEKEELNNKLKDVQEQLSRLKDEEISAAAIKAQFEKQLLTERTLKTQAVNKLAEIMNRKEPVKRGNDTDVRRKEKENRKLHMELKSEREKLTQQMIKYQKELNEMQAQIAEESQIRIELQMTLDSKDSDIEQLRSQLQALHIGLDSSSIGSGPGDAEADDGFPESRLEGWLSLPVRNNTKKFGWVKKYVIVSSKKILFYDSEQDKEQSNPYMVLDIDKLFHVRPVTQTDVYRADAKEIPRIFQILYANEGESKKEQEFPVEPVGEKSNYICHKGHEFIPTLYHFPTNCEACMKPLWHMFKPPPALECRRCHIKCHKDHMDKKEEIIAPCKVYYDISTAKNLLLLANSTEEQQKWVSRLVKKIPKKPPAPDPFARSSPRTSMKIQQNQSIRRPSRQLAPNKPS
Protocol: as §1

[2] = test system: GM-CSF induced STAT5 phosphorylation in BMDMs; assay: GM-CSF induced STAT5 phosphorylation in macrophages; format: cell-based, mouse; settings: wild type BMDMs, 10 μM inhibitor 2 h, 10 ng/ml GM-CSF
Protocol: (A) BMDMs were isolated from wild type mice. Cells were incubated with the indicated inhibitors in μM for 2 h before stimulation with 10 ng/ml IL-4 for 30 min. The levels of phosphorylated STAT6 were then determined by immunoblotting. (B) As (A) except cells were stimulated 10 ng/ml GM-CSF and the levels of phosphorylated STAT5 determined. (C) As (A) except cells were stimulated 10 ng/ml IL-10 and the levels of phosphorylated STAT3 determined. (D) As (A) except cells were stimulated 10 ng/ml IFNβ and the levels of phosphorylated STAT1 determined. For A–D, levels of ERK1/2 were determined as a loading control.
Bone marrow derived macrophages (BMDMs) were cultured as described. Briefly, bone marrow was flushed in PBS from the femurs and tibias of mice. […]
as §2

GSK3b = GSK3b (Homo sapiens, UniProt P49841); assay: Selectivity screen GSK3b; format: biochemical; settings: 1 µM inhibitor, mean
Sequence of GSK3b (P49841 whole entry): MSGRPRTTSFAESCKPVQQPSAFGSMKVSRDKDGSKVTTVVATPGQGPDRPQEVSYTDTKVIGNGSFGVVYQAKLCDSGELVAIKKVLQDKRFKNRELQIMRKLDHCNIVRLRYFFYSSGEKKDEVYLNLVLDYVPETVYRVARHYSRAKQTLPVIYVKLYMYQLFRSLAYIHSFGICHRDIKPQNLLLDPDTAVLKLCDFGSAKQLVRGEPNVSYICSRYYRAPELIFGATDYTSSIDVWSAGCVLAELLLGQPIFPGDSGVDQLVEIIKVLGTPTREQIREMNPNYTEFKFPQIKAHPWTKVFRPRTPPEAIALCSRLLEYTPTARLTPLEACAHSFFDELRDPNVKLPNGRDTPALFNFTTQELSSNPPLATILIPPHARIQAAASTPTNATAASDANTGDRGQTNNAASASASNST
Protocol: as §1

SMILES	activity remaining in the presence of the inhibitor: GCK (GCK)	activity remaining in the presence of the inhibitor: MAP4K5 (MAP4K5)	activity remaining in the presence of the inhibitor: SRPK1 (SRPK1)	activity remaining in the presence of the inhibitor: PIM2 (PIM2)	activity remaining in the presence of the inhibitor: MPSK1 (MPSK1)	activity remaining in the presence of the inhibitor: p38d MAPK (p38d MAPK)	activity remaining in the presence of the inhibitor: ULK1 (ULK1)	activity remaining in the presence of the inhibitor: NEK2a (NEK2a)	activity remaining in the presence of the inhibitor: Lck (Lck)	activity remaining in the presence of the inhibitor: BRK (BRK)	activity remaining in the presence of the inhibitor: VEG-FR (VEG-FR)	activity remaining in the presence of the inhibitor: CDK9-Cyclin T1 (CDK9-Cyclin T1)	activity remaining in the presence of the inhibitor: MST2 (MST2)	block of IL-4 induced STAT6 phosphorylation in spleenocytes [1]	activity remaining in the presence of the inhibitor: PIM3 (PIM3)	activity remaining in the presence of the inhibitor: p38b MAPK (p38b MAPK)	activity remaining in the presence of the inhibitor: ROCK 2 (ROCK 2)	inhibition of GM-CSF induced STAT5 phosphorylation [2]	activity remaining in the presence of the inhibitor: GSK3b (GSK3b)
C=CC(=O)Nc1cccc(CNc2nc(Nc3ccc(N4CCOCC4)cc3)ncc2Cl)c1 [TL8-52]	21	63	97	100	98	93	48	135	73	94	6	80	48	able to block	90	96	93	Neither TL8-52 or PF-06651600 inhibited	118
C=CC(=O)Nc1cccc(CNc2nc(Nc3ccc(N4CCN(C)CC4)cc3OC)ncc2Cl)c1 [TL6-144]	92	83	91	97	91	94	65	96	77	94	39	95	83		100	93	83		87
C=CC(=O)N1C[C@H](Nc2ncnc3[nH]ccc23)CC[C@@H]1C [PF-06651600, 1-((2S,5R)-5-((7H-Pyrrolo[2,3-d]pyrimidin-4-yl)amino)-2-methylpiperidin-1-yl)prop-2-en-1-one, reference compound]														able to block				Neither TL8-52 or PF-06651600 inhibited; also recorded: did not block	
